This assay relates to AML graft. As to the kind of experiment: In vivo apoptosis and cell death (propidium iodide staining). Set-up: species or system NOD/SCID mice. The settings on record: after 4 weeks treatment. From the text:
After treatment finished, cells were harvested from both injected right femur (RF) and non-injected bone marrow (BM, including left femur, 2 tibias), and stained with human antibodies to assess the engraftment levels of AML. Antibodies used for staining included: Mouse anti-human CD45-APC, CD15-FITC, CD34-APC7, CD38-PC7 (BD Biosciences, USA), CD14-PE, CD33-PC5 (Beckman Coulter, USA), CD19-V450, CD19-AF700, CD11b-APC7, CD34-BV421 (BD Biosciences, USA), and propidium iodide (PI; Invitrogen, USA).
Following 4 weeks Compound D treatment, harvested cells were stained with propidium iodide (PI) for detecting apoptotic and dead leukemia cells. […] To determine whether GSPT1 can also be degraded by Compound D administration in vivo, leukemia cells were harvested after 3 doses of Compound D treatment for intracellular flow cytometry to assess the levels of GSPT1 in both injected RF and non-injected BM. […] It seems that Compound D degraded GSPT1 more profoundly in the injected RF than in non-injected BM. More samples had lesser GSPT1 reduction in the non-injected BM than in RF. Perhaps this reflects differences in the niche or blood supply between these sites; intrafemoral (IF) injection involves reaming out the femoral cavity prior to cell injection. […]

Each structure is given as a SMILES string.

Regarding `O=C1CCC(N2Cc3cc(CNC(=O)C(F)(F)c4ccc(Cl)cc4)ccc3C2=O)C(=O)N1` (stereo not shown) [Compound D, 2-(4-chlorophenyl)-N-((2-(2,6-dioxopiperidin-3-yl)-1-oxoisoindolin-5-yl)methyl)-2,2-difluoroacetamide], the “number of PI+ events in mouse bone marrow” value is given as “significantly increased”.
